Measurements as given in PMC7392643, “Antibiotic fidaxomicin is an RdRp inhibitor as a potential new therapeutic agent against Zika virus” (BMC Medicine, 2020).
“Also recorded” adds a separate entry of the source.

Columns and labels:
DENV2 (NGC) = test: In vitro anti-DENV assay, RT-qPCR; assay type: cell-based, Dengue-2 virus; conditions: Dengue virus
ZIKV (ZG-01 strain) = test: Antiviral efficacy in ZIKV-infected Ifnar1-/- mice, i.v. dosing; assay type: in vivo; conditions: for Median survival: vehicle 8.5 days
Experimental: RNA from cell supernatants or from mouse tissues (brain and testis) was prepared with RaPure Viral RNA/DNA Kit (Magen, Guangzhou, China) according to the manufacturer’s instructions. The first-strand cDNA was synthesized using random hexamer primers with the Revert Aid Reverse Transcription Kit (Thermo Fisher Scientific, Rockford, IL, USA), and real-time PCR was carried out by using LightCycler® 480 Probes Master (2× reaction mix buffer including DNA polymerase) (no. 04887301001, Roche, Basel, Switzerland). Virus concentration was determined by interpolation onto an internal standard curve made up of a 7-point dilution series of in vitro transcribed RNA and tissue weight to quantify ZIKV RNA as copies/gram tissue. Primer sets used for real-time PCR are shown in Additional file 1: Table S1. Reverse transcription and real-time PCR were performed for at least three times.
For ZIKV infection and antiviral treatment studies, mice were randomly assigned to groups (n = 12–13/group). Male and female 5-week-old Ifnar1^−/− mice were infected subcutaneously (s.c.) with ZIKV (ZG-01 strain, 2 × 10^4 PFU for each mouse) 1 h before administration of treatment agents. Compounds were prepared in sterile pharmaceutical dosage form of 1:10:89 (DMSO : Tween80 : 5% glucose solution) less than 4 h prior to administration in mice. Fidaxomicin was administered by tail vein injection daily at 20 or 10 mg/kg for 7 days. The identity of the treatment groups was blinded to the researcher administering treatments. Survival, disease signs, and the weight of each mouse were recorded on day 0 and then every other day from 1 to 15 days post-infection (dpi). Mice were humanely euthanized if they could no longer right themselves or were unresponsive to stimuli. Tissues, including the brains and testes, were collected from each animal. Part of each tissue was fixed in 4% paraformaldehyde or in PBS for at least 24 h prior to paraffin embedding and sectioning for use in immunohistochemistry analysis, immunofluorescence analysis, or analysis of viral RNA. Total RNA was extracted from tissues, and ZIKV RNA was quantified as described above.
Immunofluorescence assay was carried out on paraffin-embedded mouse brain and testis tissue slides, incubated with an anti-ZIKV E antibody (1:500, BioFront Technologies, Tallahassee, FL, USA). The secondary antibody was Rhodamine Red™-X (RRX) AffiniPure F (ab')2 Fragment Goat Anti-Mouse IgG (1:500, AB_2338781, Jackson ImmunoResearch Laboratories, Inc. West Grove, PA, USA), and 4-,6-diamidino-2-phenylindole (DAPI, 1:1000, Sangon Biotech, Shanghai, China) was used to stain the nuclei. The immunofluorescent images were taken with an inverted microscope (Carl Zeiss, Oberkochen, Germany). For histologic staining, the fixed tissues were dehydrated, embedded in paraffin, sectioned, rehydrated, and stained with hematoxylin and eosin (H/E). The H/E-stained sections were evaluated for viral-induced neuropathology. […] histological examination was performed by a board-certified veterinary pathologist. Each slide was auto scanned by Axio Scan Z1 (Carl Zeiss, Oberkochen, Germany).

[1] = set-up: method as in PMID 22752858; conditions: rats; cited from earlier work
ZIKV = test: Oral administration test in ZIKV-infected mice; assay type: in vivo; conditions: 225 mg/kg, vs vehicle
Experimental: Fig. S4. Oral administration test for the antiviral efficacy of fidaxomicin in vivo. a Schematic illustration of the animal experimental design for the oral administration test (n=10 animals per group). b Kaplan–Meier survival of ZIKV-infected mice treated with fidaxomicin at the dosage of 225mg/kg. c Body weight changes were recorded daily for ZIKV-infected mice treated with fidaxomicin at the dosage of 225mg/kg or with control delivery vehicle. d Tissue viral loads in the brains of ZIKV-infected mice were determined by RT-qPCR (P value, compared to vehicle control).

ZIKV RdRp protein = target: T1, ZIKV RdRp protein (Zika virus, UniProt A0A024B7W1); test: SPR (BIAcore) binding to ZIKV RdRp protein
T1 construct: RdRp (amino acids 272 to 903); His tag (8x histidine) (N); made in house; host or cells: Escherichia coli (Rosetta)
Experimental: (§1) The cDNA fragment of ZIKV (ZG-01 strain) NS5 (amino acids 1 to 903), RdRp (amino acids 272 to 903), or DENV2 NS5 (amino acids 1 to 900) containing an N-terminal His tag sequence was cloned into a pET-30a-mutant vector. For protein expression, the plasmids were transformed into Rosetta™ competent cells (TIANGEN BIOTECH Co., Ltd., Beijing, China), respectively. […] Mass spectrometry was performed by Shanghai Applied Protein Technology Co. Ltd. (Shanghai, China). The concentration of a targeted protein was measured by SDS-PAGE using BSA (Sigma, St. Louis, MO) as a standard.
(§2) Surface plasmon resonance (SPR) experiments were performed in a BIAcore T100 device (BIAcore Inc., Uppsala, Sweden) using CM5 sensor chips (General Electric Company, GE) according to the protocol provided by the manufacturer. Briefly, recombinant ZIKV NS5 protein, RdRp protein, or DENV2 NS5 protein was immobilized on a CM5 chip, respectively. Different concentrations of fidaxomicin or ribavirin were injected at a flow rate of 30 μL/min for 3 min. Subsequently, data were collected for a 3-min association followed by a 20-min dissociation. The chip was regenerated by injecting 10 μL of 15 mM NaOH for 20 s. All procedures were run in 1% DMSO PBS-P20 (GE) as a running buffer. The binding kinetics was analyzed with the software BIAevaluation version 3.1 using a 1:1 Langmuir binding model. The Kd was calculated as previously described.

in vitro = conditions: African green monkey
Experimental: Cell viability was detected by the 3-(4,5-dimethyl-2-thiazolyl)-2,5-diphenyl-2H-tetrazolium bromide (MTT) assay according to a previously described method [48]. Briefly, cells were seeded in 96-well plates at a density of 1 × 10^4 cells per well and cultured at 37 °C for 24 h, followed by exposure to the serially diluted fidaxomicin or ribavirin separately for 48 h. Cell survival rate was determined by MTT reduction assay according to the manufacturer’s protocol (Invitrogen). The 50% cytotoxic concentration (CC50) was defined as the compound concentration required to inhibit the cell growth by 50% compared with the control assay. The assay was performed in triplicates in three independent experiments.

[2] = target: T2, ZIKV NS5 full-length protein (Zika virus, UniProt A0A024B7W1); test: SPR (BIAcore) binding to ZIKV NS5 full-length protein
T2 construct: NS5 (amino acids 1 to 903); His tag (8x histidine) (N); made in house; host or cells: Escherichia coli (Rosetta)
Experimental: as §1
as §2, with “All procedures were run in 1% DMSO PBS-P20 (GE) as a running buffer.” left out

T1 sequence (A0A024B7W1 2792-3423): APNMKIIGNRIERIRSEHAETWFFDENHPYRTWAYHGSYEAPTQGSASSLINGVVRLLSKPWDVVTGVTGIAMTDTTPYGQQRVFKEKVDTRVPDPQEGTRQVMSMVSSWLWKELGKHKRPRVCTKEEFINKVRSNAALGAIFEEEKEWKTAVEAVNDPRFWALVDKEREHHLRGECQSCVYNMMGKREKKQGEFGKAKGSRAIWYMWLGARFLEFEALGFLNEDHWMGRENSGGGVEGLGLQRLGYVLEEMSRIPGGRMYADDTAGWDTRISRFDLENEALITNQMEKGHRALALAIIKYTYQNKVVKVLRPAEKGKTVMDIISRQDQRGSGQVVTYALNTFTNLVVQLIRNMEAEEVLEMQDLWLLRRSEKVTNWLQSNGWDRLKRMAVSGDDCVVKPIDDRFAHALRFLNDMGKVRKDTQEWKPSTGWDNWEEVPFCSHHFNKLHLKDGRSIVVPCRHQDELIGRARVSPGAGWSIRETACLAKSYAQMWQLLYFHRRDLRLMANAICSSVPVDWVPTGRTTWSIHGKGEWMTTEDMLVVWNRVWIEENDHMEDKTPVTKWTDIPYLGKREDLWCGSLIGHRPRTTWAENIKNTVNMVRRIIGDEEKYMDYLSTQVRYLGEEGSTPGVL
T2 sequence (A0A024B7W1 2521-3423): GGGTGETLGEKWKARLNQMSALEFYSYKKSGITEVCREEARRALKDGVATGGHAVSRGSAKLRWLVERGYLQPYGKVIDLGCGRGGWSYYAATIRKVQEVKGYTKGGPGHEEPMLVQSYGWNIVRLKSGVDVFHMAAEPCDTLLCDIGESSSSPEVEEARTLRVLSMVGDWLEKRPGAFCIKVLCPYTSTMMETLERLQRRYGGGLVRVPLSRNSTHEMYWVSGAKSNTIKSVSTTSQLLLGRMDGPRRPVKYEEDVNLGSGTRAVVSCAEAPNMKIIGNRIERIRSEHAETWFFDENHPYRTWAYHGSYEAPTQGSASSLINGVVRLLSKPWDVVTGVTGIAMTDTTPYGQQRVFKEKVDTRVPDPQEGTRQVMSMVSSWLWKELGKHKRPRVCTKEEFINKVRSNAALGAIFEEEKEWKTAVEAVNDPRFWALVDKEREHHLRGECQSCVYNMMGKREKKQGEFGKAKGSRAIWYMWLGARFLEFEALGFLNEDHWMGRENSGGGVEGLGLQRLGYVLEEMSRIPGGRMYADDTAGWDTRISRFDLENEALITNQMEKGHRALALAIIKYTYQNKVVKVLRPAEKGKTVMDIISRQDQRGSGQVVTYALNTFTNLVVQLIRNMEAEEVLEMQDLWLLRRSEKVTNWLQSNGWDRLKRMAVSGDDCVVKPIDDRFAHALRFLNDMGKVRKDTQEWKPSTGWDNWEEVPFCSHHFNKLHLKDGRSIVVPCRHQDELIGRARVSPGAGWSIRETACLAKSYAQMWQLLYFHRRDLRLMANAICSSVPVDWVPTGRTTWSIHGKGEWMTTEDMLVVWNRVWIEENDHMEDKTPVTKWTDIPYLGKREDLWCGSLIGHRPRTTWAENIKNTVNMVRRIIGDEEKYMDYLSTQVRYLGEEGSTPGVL

Compound `CCc1c(Cl)c(O)c(Cl)c(O)c1C(=O)O[C@H]1[C@H](O)[C@H](OC)[C@H](OC/C2=C\C=C\C[C@H](O)/C(C)=C/[C@H](CC)[C@@H](O[C@@H]3OC(C)(C)[C@@H](OC(=O)C(C)C)[C@H](O)[C@@H]3O)/C(C)=C/C(C)=C/C[C@@H]([C@@H](C)O)OC2=O)O[C@@H]1C` [Fidaxomicin] has an EC50 (DENV2 (NGC); DENV2, A549 cells) of 9.9 ± 2.5 µM, an EC90 (DENV2 (NGC); DENV2, A549 cells) of 18 ± 4.2 µM and an EC50 (DENV2 (NGC); DENV2, SNB-19, SNB19 cells) of 6.8 ± 1.5 µM. For the same compound, the EC90 (DENV2 (NGC); DENV2, SNB-19, SNB19 cells) was 10.6 ± 2.1 µM, the Median survival (ZIKV (ZG-01 strain); 10 mg/kg i.v. daily for 7 days) was 14 days and the Median survival (ZIKV (ZG-01 strain); 20 mg/kg i.v. daily for 7 days) was “over 15 days”. For the same compound, the body weight loss (ZIKV (ZG-01 strain); 20 mg/kg/day, between 8 and 15 dpi, vs vehicle) was “obvious protection from weight loss”, the “ZIKV load in the brains and testes (immunostaining of ZIKV E)” value (ZIKV (ZG-01 strain); 10 and 20 mg/kg vs vehicle) was “reduced” and the “viral RNA levels in the brain and testis” value (ZIKV (ZG-01 strain); 15 dpi, 10 and 20 mg/kg groups, RT-qPCR) was “significantly decreased”. For the same compound, the “neuronal necrosis in hippocampal pyramidal cells” value (ZIKV (ZG-01 strain); H/E staining) was “remarkably reduced”, the “pathologic damages in the cerebra” value (ZIKV (ZG-01 strain); both treatment groups vs vehicle, H/E staining) was “remarkably alleviated” and the “number of neurological signs (paralysis, hunching)” value (ZIKV (ZG-01 strain); both treatment groups, dose-dependent) was “progressive decrease”. The “perivascular cuffing of vessels in cerebra” value (ZIKV (ZG-01 strain); both treatment groups, p = 0.0090 and p < 0.0001) was “significant decrease”, the “mice protected from mortality” value (ZIKV (ZG-01 strain); high-dose group (20 mg/kg i.v. daily for 7 days)) was “nine out of 13” and the “effective therapeutic doses against ZIKV” value (ZIKV (ZG-01 strain); mice, i.v.) was 10 to 20 mg/kg. The “ZIKV E protein in brain and testis tissues (western blotting)” value (ZIKV (ZG-01 strain); vs vehicle control) was “significant suppressive effect”, the “No Observed Adverse Effect Level (NOAEL)” value [1] was 62.5 mg/kg and the “outcome of ZIKV-infected mice after oral administration” value (ZIKV) was “did not improve the outcome; also recorded: only weakly antagonizes”. For the same compound, the Kd (ZIKV RdRp protein) was 23.2 µM, the “binding to ZIKV RdRp protein (SPR)” value (ZIKV RdRp protein; qualitative) was “strong, clear binding” and the CC50 at 48 h (in vitro) was 126 ± 10.3 µM. For the same compound, the Kd [2] was 18.1 µM.
